Results on 10 substances are retold here after paper PMC6130872, “Plasmodium vivax Pv12 B-cell epitopes and HLA-DRβ1*-dependent T-cell epitopes in vitro antigenicity” (PLoS ONE, 2018).

In one experiment the target is T1, HLA-DRβ1*1101 (Homo sapiens, UniProt P01903+P01911, A100R/A169T/A87E/I96F/K41T/L162R/M171V/P40S/Q125H/Q178H/Q39Y/Q99D/R42S/S66Y/T262R/V115G/W38E).
T1 construct: endogenous in cells; host or cells: IHW09043 homozygous lymphoblastoid B-cell line (IHWG)
The experiment is described as follows: biochemical. Type of experiment: binding. Particulars: for pIC50: DRβ1*1101, 50% displacement of biotinylated HA, 4.2 to 250 μM serial dilutions, second order exponential decay fit; for inhibition at 250 µM: 24 h, read-out: Binding percentage.

For a further experiment, the target named is HLA-DRβ1*0701 (Homo sapiens, UniProt P01903+P01911, A100R/A102G/A103Q/D57E/D86V/E43K/F76Y/K127E/L162R/M171V/P40G/Q125H/Q99D/R33Q/R42Y/R54Q/S133A/S66F/T210M/V115G/Y107V/Y59L/Y89S). Put plainly: biochemical. Type of experiment: binding. Particulars: for pIC50: 50% displacement of biotinylated TT, 4.2 to 250 μM serial dilutions, second order exponential decay fit; for inhibition at 250 µM: 24 h, read-out: Binding percentage.

The target in the next experiment is T2, HLA-DRβ1*0401 (Homo sapiens, UniProt P01903+P01911, A100K/A169T/F76Y/I96L/K127E/L162R/M171V/N62H/P40V/Q125Y/R42H/S133A/S149N/S66Y/V115G/V209L/W38E).
T2 construct: endogenous in cells; host or cells: IHW09025 homozygous lymphoblastoid B-cell line (IHWG)
Put plainly: In vitro HLA-DRβ1 binding assay (competitive ELISA, biotinylated control peptide displacement). As to conditions: for pIC50: DRβ1*0401, 50% displacement of biotinylated HA, 4.2 to 250 μM serial dilutions, second order exponential decay fit; for inhibition at 250 µM: 24 h, read-out: Binding percentage. For orientation: In an ELISA, binding on a coated surface is turned into a signal by an enzyme label.

The next experiment addresses HLA-DRβ1*1302 (Homo sapiens, UniProt P01903+P01911, A100E/A169T/K41T/L162R/M171V/P40S/Q125H/Q178H/Q39Y/Q99D/R42S/S66N/T262R/V115G/W38E/Y61H). Put plainly: biochemical. As to conditions: for pIC50: 50% displacement of biotinylated TT, 4.2 to 250 μM serial dilutions, second order exponential decay fit; for inhibition at 250 µM: 24 h, read-out: Binding percentage. Type of experiment: binding.

The test system of experiment [1] is CD4+ T-lymphocytes (PBMCs). Put plainly: Lymphoproliferation assay (CFSE, flow cytometry). The class given is cell-based, human. Here is the method: P. vivax-exposed individuals and control group PB samples were taken and placed in citrate phosphate dextrose (CPD) solution in Vacutainer tubes (BD Vacutainer); 40 mL blood was used to obtain PBMCs from gradient centrifugation with Ficoll-Paque PLUS (GE Healthcare) to evaluate the proliferative response against Pv12 peptides.
Two hundred thousand (2 x 10^5) PBMCs per well were seeded in 96-well round-bottomed plates (Costar, Corning Incorporated) in RPMI 1640 medium (Gibco) supplemented with inactivated 10% autologous plasma, 2 g/L sodium bicarbonate, 2 mM L-glutamine, 1 mM sodium pyruvate and100 U/mL Antibiotic-Antimycotic solution (all Gibco). The PBMCs were labelled with carboxyfluorescein diacetate N-succinimidyl ester (CFSE) (5μM) (CellTrace CFSE cell proliferation kit, Molecular Probes, Eugene, OR, USA) and stimulated with each peptide at 10 μg/mL final concentration.
Control PBMCs were stimulated with 5 μg/mL parasite lysate and 2% phytohaemagglutinin (PHA) (Sigma) as positive controls. Low binding peptide (LBP) 39115 was used as negative control in experimental binding assays and a well containing PBMCs with just medium (unstimulated) was used as assay control. The cells were cultured at 37°C in a 5% CO2 atmosphere for 96 hours; assays were carried out in duplicate. Pacific Blue-labelled mouse anti-human CD4 (RPA-T4 clone) (BD Biosciences) antibody was then used for labelling the cells which were read on a FACS Canto II flow cytometer (BD Biosciences). FlowJo software v7.6.5 (FlowJo, LLC) was used for analysing the data and CD4^+ T-lymphocyte proliferation.
Cell proliferation was calculated by relative loss regarding CFSE fluorescence intensity, calculated as the percentage of fluorescence intensity of cells co-cultured with antigen divided by the percentage of co-cultured cells’ fluorescence intensity in the absence of antigen. The results were expressed as stimulation index (SI); a ≥2 value was considered positive.
CD4+ lymphocyte mean fluorescence intensity (MFI) values were used for additional analysis. Cell proliferation was calculated as the stimulation rate, where the unstimulated CD4+ T-cell population MFI was divided by the stimulated CD4+ T-cell population’s MFI. MFI becomes less as the antigen stimulates CD4+ T-lymphocytes, whereby ≥1 values indicate cell proliferation. The relative value of proliferation was considered positive, with at least 1% loss in the mean intensity of florescence of the CD4+ population, i.e. ≥1.01.

The mark [2] stands for this setting: 0.1 μM purified molecule, 5 μM biotinylated TT, 250 μM test peptide, 24 h RT, OD 405 nm.

pIC50: −log10 of the molar value. No end group written: not given here.

HLA-DRβ1*1302, sequence (P01903 26-254 limits assumed, other chains not shown): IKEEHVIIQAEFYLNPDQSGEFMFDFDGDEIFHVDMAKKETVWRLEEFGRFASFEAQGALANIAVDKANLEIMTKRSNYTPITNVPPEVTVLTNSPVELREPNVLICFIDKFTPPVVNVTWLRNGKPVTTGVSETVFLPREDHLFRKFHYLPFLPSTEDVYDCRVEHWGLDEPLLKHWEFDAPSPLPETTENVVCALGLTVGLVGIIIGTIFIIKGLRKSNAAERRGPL
T1 sequence (P01903 26-254, other chains not shown): as the sequence (P01903 26-254 limits assumed, other chains not shown) above

As a reminder, the pIC50 is the IC50 on a negative log10 scale, so that one unit is a factor of ten. In the case of YNKIFYARVPQRIYQ [Peptide 39114], the pIC50 at HLA-DRβ1*1101 was 5.08; on HLA-DRβ1*0701, 4.37; on HLA-DRβ1*0401, 4.36; at HLA-DRβ1*1302, 4.13. Moreover, the inhibition at 250 µM at HLA-DRβ1*1302 (setting [2]) was no less than 50%.

On to LTDLVMDHYNKIFYA [Peptide 39120], for which the inhibition at 250 µM at HLA-DRβ1*1101 is 32.7%; at HLA-DRβ1*0701 (setting [2]) it was 40.6%; at HLA-DRβ1*0401, 26.7%; at HLA-DRβ1*1302 (setting [2]), 86%. Further, on HLA-DRβ1*1302, the negative-log IC50 (pIC50) is 4.42.

As for EECFLQGFNLSGKKE [Peptide 39113], the inhibition at 250 µM came to 62.9% on HLA-DRβ1*1101, 8.89% at HLA-DRβ1*0701 (setting [2]), 95.8% at HLA-DRβ1*0401 and 9.28% on HLA-DRβ1*1302 (setting [2]). For the same substance, the pIC50 on HLA-DRβ1*1101 was 4.41; at HLA-DRβ1*0401, 5.13.

As for GCDFTKNTSPLFTKG [Peptide 39119], the inhibition at 250 µM on HLA-DRβ1*1101 came out at 26.9%; on HLA-DRβ1*0701 (setting [2]), 29.4%; on HLA-DRβ1*0401, 17.4%; at HLA-DRβ1*1302 (setting [2]) it was 92.2%. The same substance gave a pIC50 on HLA-DRβ1*1302 of 5.13.

For the substance RKNYELLPNNCFEQV [Peptide 39112], the inhibition at 250 µM turned out to be 55.4% on HLA-DRβ1*1101, 76.4% on HLA-DRβ1*0701 (setting [2]), 95.8% at HLA-DRβ1*0401 and 14.1% on HLA-DRβ1*1302 (setting [2]). Moreover, the pIC50 on HLA-DRβ1*0701 was 4.53; on HLA-DRβ1*0401, 5.14.

On to “phytohaemagglutinin [PHA, reference compound]”, for which the “control group individuals responding” value in experiment [1] (control group) was 100%. Moreover, in experiment [1] (exposed individuals), the “frequency of response (responders, SI ≥2)” value stood at 96.6%.

On to KKSYDDVSFRVPPNL [Peptide 39115], for which the Binding percentage came out at 20.02% at HLA-DRβ1*1101, 9.86% on HLA-DRβ1*0701 (setting [2]), 12.98% at HLA-DRβ1*0401 and 12.00% at HLA-DRβ1*1302 (setting [2]). Further, the “control group response (responders/8)” value in experiment [1] (control group, n = 8) is 0/8. For the same substance, the “frequency of response (responders, SI ≥2)” value in experiment [1] (exposed individuals) is on record as 28%. Moreover, the “stimulation index (SI), average response” value in experiment [1] (exposed individuals, peptide 10 μg/mL, lysate 5 μg/mL, 96 h, CFSE, SI ≥2 positive) is listed as 2.018. Besides, in experiment [1] (exposed individuals, positive ≥1.01), the “responders according to relative proliferation values (MFI)” value stood at 50%.

In the case of LGIIEVLIPSLPKKI [Peptide 39117], the inhibition at 250 µM is 51.1% at HLA-DRβ1*1101, 98.6% at HLA-DRβ1*0701 (setting [2]), 33.1% on HLA-DRβ1*0401 and 95.4% at HLA-DRβ1*1302 (setting [2]). Moreover, the pIC50 was 3.87 on HLA-DRβ1*1101, 4.94 at HLA-DRβ1*0701 and 5.18 at HLA-DRβ1*1302.

On to KRLVAHFEFATTPDD [Peptide 39122], for which the inhibition at 250 µM amounted to 74.9% on HLA-DRβ1*1101, 23.1% on HLA-DRβ1*0701 (setting [2]), 80.9% on HLA-DRβ1*0401 and 71.1% at HLA-DRβ1*1302 (setting [2]). Moreover, the pIC50 on HLA-DRβ1*1101 is 3.77; on HLA-DRβ1*0401, 4.23.

For LVEYLHGAAAIVKRK [Peptide 39118], the inhibition at 250 µM at HLA-DRβ1*1101 came out at 48.2%; at HLA-DRβ1*0701 (setting [2]), 90%; at HLA-DRβ1*0401 it was 13.5%; on HLA-DRβ1*1302 (setting [2]) it was 31.7%. For the same substance, at HLA-DRβ1*0701, the pIC50 was 4.82.
